In patent US4728734A, “C-3'thioiminosulfonyl cephalosporin analogs” (American Home Products Corporation, priority 1985, dated 1988):
≈ marks a conversion by molar mass, not a printed value. Counter-ions that a name gives are not always drawn.

Legend:
Assay type in all cases: cell-based
[1] = system: Serratia marcescens ATCC 13880; experiment: Antibacterial activity, agar dilution MIC, Serratia marcescens ATCC 13880; details: ATCC13880, 18 hours at 35° C.
Procedure: (§1) The compounds of the invention are tested for their antibacterial activity. The test is carried out as follows:
(§2) The organisms used in the test comprise the following:
(§3) Staphylococcus aureus (penicillin-sensitive and resistant), Pseudomonas aeruginosa, Escherichia coli, […] pneumoniae, Bordetella bronchiseptica, Proteus vulgaris, P. mirabilis, Acinetobacter calcoaceticus.
(§4) Test organisms may be added or deleted in order to reflect current clinical patterns of antibiotic susceptibility or shifts in pathogenic potential.
(§5) Organisms are normally grown for 18 hours in Brain Heart Infusion at 35° C. Cultures are adjusted with saline to MacFarland No. 1.5 standard prior to use.
(§6) Stock concentrations (e.g. 2,5000 μg or units per ml) are prepared in a suitable vehicle. Two-fold dilutions are made. One ml quantities of each dilution are incorporated in 9 ml of the appropriate agar (e.g. Seed) in sterile Petri plates. The hardened surface is inoculated with test organisms by use of a Steers replicating device. The plates are incubated (e.g. 18 hours at 35° C.) and activity is determined.

[2] = system: Pseudomonas aeruginosa ATCC 27853; experiment: Antibacterial activity, agar dilution MIC, Pseudomonas aeruginosa ATCC 27853; details: ATCC27853, 18 hours at 35° C.
Procedure: as §1, §2, §3, §4, §5, §6

[3] = system: Enterobacter cloacae ATCC 13047; experiment: Antibacterial activity, agar dilution MIC, Enterobacter cloacae ATCC 13047; details: ATCC13047, 18 hours at 35° C.
Procedure: as §1, §2, §3, §4, §5, §6

[4] = system: Klebsiella pneunomiae KL-1; experiment: Antibacterial activity, agar dilution MIC, Klebsiella pneunomiae KL-1; details: KL1, 18 hours at 35° C.
Procedure: as §1, §2, §3, §4, §5, §6

[5] = system: Streptococcus faecalis ATCC 29212; experiment: Antibacterial activity, agar dilution MIC, Streptococcus faecalis ATCC 29212; details: Enterococcus faecalis, ATCC29212, 18 hours at 35° C.
Procedure: as §1, §2, §3, §4, §5, §6

[6] = system: Proteus vulgaris A 84354 1; experiment: Antibacterial activity, agar dilution MIC, Proteus vulgaris A 84354 1; details: A843541, 18 hours at 35° C.
Procedure: as §1, §2, §3, §4, §5, §6

[7] = system: Escherichia coli ATCC 25922; experiment: Antibacterial activity, agar dilution MIC, Escherichia coli ATCC 25922; details: ATCC25922, 18 hours at 35° C.
Procedure: as §1, §2, §3, §4, §5, §6

[8] = system: Staphylococcus aureus ATCC 29213; experiment: Antibacterial activity, agar dilution MIC, Staphylococcus aureus ATCC 29213; details: ATCC29213, 18 hours at 35° C.
Procedure: as §1, §2, §3, §4, §5, §6

SMILES	MIC [1] [µg/mL]	MIC [2] [µg/mL]	MIC [3] [µg/mL]	MIC [4] [µg/mL]	MIC [5] [µg/mL]	MIC [6] [µg/mL]	MIC [7] [µg/mL]	MIC [8] [µg/mL]
CO/N=C(\C(=O)N[C@@H]1C(=O)N2C(C(=O)OC(C)(C)C)=C(CSC3=NS(=O)(=O)c4cscc43)CS[C@H]12)c1csc(N)n1 [Example 1 B., (6R,7R)-7[[(2-Amino-4-thiazolyl)(methoxyimino)acetyl]amino]-8-oxo-3-[(thieno[3,4-d]isothiazol-3-ylthio)methyl]-5-thia-1-azabicyclo[4.2.0]oct-2-ene-2-carboxylic acid 1,1-dimethylethyl ester S^3,S^3-dioxide]	32 (≈ 48.7 µM)	> 256	> 256	2 (≈ 3.04 µM)	> 256	2 (≈ 3.04 µM)	8 (≈ 12.2 µM)	128 (≈ 195 µM)
CO/N=C(\C(=O)N[C@@H]1C(=O)N2C(C(=O)O)=C(CSC3=NS(=O)(=O)c4cscc43)CS[C@H]12)c1csc(N)n1 [Example 1 C., (6R,7R)-7-[[(2-Amino-4-thiazolyl)(methoxyimino)acetyl]amino]-8-oxo-3-[(thieno-[3,4-d]isothiazol-3-ylthio)methyl]-5-thia-1-azabicyclo[4.2.0]oct-2-ene-2-carboxylic acid S^3,S^3-dioxide, trifluoroacetate salt]	2	> 256	32	< 1	256	< 1	2	32
